Where two headings read alike, the source gives them in different places. Square brackets hold non-standard residues; d marks the D form. Peptide text beside a SMILES is read from it. * marks the point of attachment. X1 = CC(=O)N[C@@H]1[C@@H](O[C@@H]2O[C@H](CO)[C@H](O)[C@H](O)[C@H]2O)[C@@H](O)[C@@H](CO[C@@H]2O[C@H](CO)[C@@H](O[C@@H]3O[C@H](CO)[C@H](O)[C@H](O[C@]4(C(=O)O)C[C@H](O)[C@@H](NC(C)=O)[C@H]([C@H](O)[C@H](O)CO)O4)[C@H]3O)[C@H](O[C@@H]3O[C@@H](C)[C@@H](O)[C@@H](O)[C@@H]3O)[C@H]2NC(C)=O)O[C@@H]1*; Phe(4-CH2SO3H) = N[C@@H](Cc1ccc(CS(=O)(=O)O)cc1)C(=O)O; Mca = COc1ccc2c(CC(=O)*)cc(=O)oc2c1
Legend:
[1] = target: T1, recombinant human P-selectin Fc chimera (Homo sapiens, UniProt P16109); assay: Flow cytometry, inhibition of human P-selectin Fc chimera binding to human leukocytes; assay type: cell-based
T1 sequence (P16109 42-830): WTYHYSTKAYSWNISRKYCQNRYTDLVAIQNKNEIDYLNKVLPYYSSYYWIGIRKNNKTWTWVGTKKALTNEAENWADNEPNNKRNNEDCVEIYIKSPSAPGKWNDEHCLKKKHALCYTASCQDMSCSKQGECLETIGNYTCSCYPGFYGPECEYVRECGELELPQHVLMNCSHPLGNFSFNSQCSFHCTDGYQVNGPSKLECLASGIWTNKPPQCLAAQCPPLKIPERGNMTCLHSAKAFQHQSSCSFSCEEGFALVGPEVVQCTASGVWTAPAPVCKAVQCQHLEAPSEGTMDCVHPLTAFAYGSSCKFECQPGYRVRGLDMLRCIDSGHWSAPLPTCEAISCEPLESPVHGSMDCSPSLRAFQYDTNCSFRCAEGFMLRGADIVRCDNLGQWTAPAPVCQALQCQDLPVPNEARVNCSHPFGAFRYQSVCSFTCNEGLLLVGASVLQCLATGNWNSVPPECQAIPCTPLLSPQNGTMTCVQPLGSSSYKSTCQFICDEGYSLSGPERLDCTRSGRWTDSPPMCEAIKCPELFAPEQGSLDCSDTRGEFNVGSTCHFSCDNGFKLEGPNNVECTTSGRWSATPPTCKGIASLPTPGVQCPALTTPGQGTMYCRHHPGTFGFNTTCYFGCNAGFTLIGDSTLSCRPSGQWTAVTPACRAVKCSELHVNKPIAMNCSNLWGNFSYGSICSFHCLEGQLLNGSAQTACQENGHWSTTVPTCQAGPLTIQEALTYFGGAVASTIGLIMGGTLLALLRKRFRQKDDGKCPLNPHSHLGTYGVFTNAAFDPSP
Experimental: Flow cytometry was used to characterize the ability of GSnP-6 to block binding of selectin-IgG chimeras to murine and human leukocytes. Recombinant mouse P- or L-selectin Fc chimera (2 μg/mL) was incubated with murine neutrophils and GSnP-6 (0-30 μM). Likewise, recombinant human P-selectin or L-selectin Fc chimera were incubated with human peripheral blood neutrophils and monocytes, as well as the human U937 cell line in the presence of GSnP-6 (0-30 μM). Binding of selectin-IgG chimeras was detected with PE-conjugated anti-IgG antibody, quantified as mean fluorescent intensity, and plotted as percent inhibition. Specificity was confirmed with selectin-specific blocking antibodies.

L-selectin (L-sel-Ig) = target: T2, L-selectin (L-sel-Ig) (Homo sapiens, UniProt P14151); assay: Biacore binding assay, L-selectin; settings: compared with P-selectin
T2 sequence (P14151 39-372): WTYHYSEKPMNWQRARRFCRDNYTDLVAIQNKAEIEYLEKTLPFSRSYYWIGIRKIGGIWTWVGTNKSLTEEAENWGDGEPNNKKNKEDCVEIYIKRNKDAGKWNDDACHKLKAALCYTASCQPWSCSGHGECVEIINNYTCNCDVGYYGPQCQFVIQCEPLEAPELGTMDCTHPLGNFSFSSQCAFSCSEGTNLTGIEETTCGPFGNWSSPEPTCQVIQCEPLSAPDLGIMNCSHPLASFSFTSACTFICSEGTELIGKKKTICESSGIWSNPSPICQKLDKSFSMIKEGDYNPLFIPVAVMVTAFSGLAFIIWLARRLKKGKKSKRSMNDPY
Experimental: (§1) Dissociation constants (Kd) were determined using a Biacore binding assay after initial capture of biotinylated GS(n)P-6 onto streptavidin-coated sensor chips followed by flow through of P-, L- or E-sel-Ig (2.5 to 60 μg/mL). […] The Kd of GSnP-6 to murine P-selectin was ˜9-fold lower than to human P-selectin.

mouse P-selectin = target: T3, mouse P-selectin (Mus musculus, UniProt Q01102); assay: Biacore binding assay, mouse P-selectin
T3 sequence (Q01102 42-768): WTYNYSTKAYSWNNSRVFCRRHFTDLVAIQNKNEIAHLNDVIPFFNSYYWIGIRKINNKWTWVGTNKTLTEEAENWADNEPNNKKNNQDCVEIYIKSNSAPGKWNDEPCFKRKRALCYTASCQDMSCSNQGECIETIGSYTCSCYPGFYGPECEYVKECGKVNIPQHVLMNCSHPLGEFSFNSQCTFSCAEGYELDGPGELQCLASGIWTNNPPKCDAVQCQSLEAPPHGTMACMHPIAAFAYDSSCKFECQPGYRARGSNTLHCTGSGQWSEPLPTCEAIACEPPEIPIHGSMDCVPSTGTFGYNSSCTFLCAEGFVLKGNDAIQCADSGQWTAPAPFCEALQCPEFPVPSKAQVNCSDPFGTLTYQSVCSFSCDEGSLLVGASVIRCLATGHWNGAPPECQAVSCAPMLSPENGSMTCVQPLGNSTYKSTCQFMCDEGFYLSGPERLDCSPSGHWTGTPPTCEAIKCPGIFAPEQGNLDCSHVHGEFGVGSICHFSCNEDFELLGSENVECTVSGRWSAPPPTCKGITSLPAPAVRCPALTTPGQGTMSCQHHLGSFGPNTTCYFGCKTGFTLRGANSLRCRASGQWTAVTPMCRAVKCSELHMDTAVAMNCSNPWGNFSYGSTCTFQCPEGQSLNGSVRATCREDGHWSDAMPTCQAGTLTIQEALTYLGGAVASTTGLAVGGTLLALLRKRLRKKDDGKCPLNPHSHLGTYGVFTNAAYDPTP
Experimental: Bound peptides were detected using Alexa-488 labeled anti-human IgG antibody (5 μg/mL). Three lectins RCA-1, AAL, and PNA were used to confirm the sequence of enzymatic steps. Monoclonal antibodies CHO131, PSG2 antibody and PL-1 were used to confirm the presence of SLex, tyrosine sulfates, and the peptide sequence, respectively. Biacore binding analysis to human P-selectin with observed rate constants for (D) GSnP-6, kon 3.1×10^5 M^−1s^−1, koff 6.9×10^3 M^−1s^−; GSn2P-6, kon6.4×10^5 M^−1s^−1, koff 6.8×10^3 M^−1s. Biacore binding analysis to mouse P-selectin with observed rate constants for (E) GsnP-6, kon 4.9×10^4 M^−1s^−1, koff 8.0×10^3 M^−1s^−; GSn2P-6 kon 5.3×10^4 M^−1s^−1, koff 9.0×10^3 M^−1s. (F) Temperature- and pH-dependent stability studies of GSnP-6.
as §1

## COc1ccc2c(CC(=O)NCCCC[C@H](N)C(=O)N[C@@H](CCC(=O)O)C(=O)N[C@@H](Cc3ccc(CS(=O)(=O)O)cc3)C(=O)N[C@@H](CCC(=O)O)C(=O)N[C@@H](Cc3ccc(CS(=O)(=O)O)cc3)C(=O)N[C@@H](CC(C)C)C(=O)N[C@@H](CC(=O)O)C(=O)N[C@@H](Cc3ccc(CS(=O)(=O)O)cc3)C(=O)N[C@@H](CC(=O)O)C(=O)N[C@@H](Cc3ccccc3)C(=O)N[C@@H](CC(C)C)C(=O)N3CCC[C@H]3C(=O)N[C@@H](CCC(=O)O)C(=O)N[C@H](C(=O)N[C@@H](CCC(=O)O)C(=O)N3CCC[C@H]3C(=O)N[C@@H](CC(C)C)C(=O)O)[C@@H](C)O[C@H]3O[C@H](CO[C@@H]4O[C@H](CO)[C@@H](O[C@@H]5O[C@H](CO)[C@H](O)[C@H](O[C@]6(C(=O)O)C[C@H](O)[C@@H](NC(C)=O)[C@H]([C@H](O)[C@H](O)CO)O6)[C@H]5O)[C@H](O[C@@H]5O[C@@H](C)[C@@H](O)[C@@H](O)[C@@H]5O)[C@H]4NC(C)=O)[C@H](O)[C@H](O[C@@H]4O[C@H](CO)[C@H](O)[C@H](O)[C@H]4O)[C@H]3NC(C)=O)cc(=O)oc2c1 [GSnP-6] (H-K(Mca)E[Phe(4-CH2SO3H)]E[Phe(4-CH2SO3H)]LD[Phe(4-CH2SO3H)]DFLPET(X1)EPL-OH)
[1]; human U-937 cells, GSnP-6 0-30 μM, read-out: IC50, P-selectin dependent interactions, human U-937 cells
  IC50: ~8 µM
[1]; human peripheral blood monocytes, read-out: IC50, P-selectin dependent interactions, human monocytes
  IC50: ~30 µM
[1]; human peripheral blood neutrophils (PMN), read-out: IC50, P-selectin dependent interactions, human PMN
  IC50: ~30 µM
L-selectin (L-sel-Ig)
  apparent affinity to L-selectin: even lower apparent affinity
Mouse P-selectin; printed as fold lower than to human P-selectin
  Kd to murine P-selectin relative to human P-selectin: ~9 fold
Mouse P-selectin; read-out: koff, mouse P-selectin
  koff: 0.008 s⁻¹
Mouse P-selectin; read-out: kon, mouse P-selectin
  kon: 49000 M⁻¹ s⁻¹
